Experimental data taken from US7368444B2, “N-carbamoyl nitrogen-containing fused ring compounds and drugs containing these compounds as the active ingredient” (Ono Pharmaceutical Co., Ltd., priority 2002, dated 2008).

Legend:
[1] = tested on: rat adrenocortical mitochondria; experiment: Determination of pregnenolone in rat adrenocortical mitochondria; assay type: biochemical; conditions: final concentration of the compound 1 μmol/L; compared with DMSO treated group
Experimental: The steroid productivity of the present compound was evaluated using rat adrenocortical mitochondria.
After intraperitoneal administration of 20 mg/mL (1 mL) cycloheximide, 10 IU/mL (0.3 mL) adrenocorticotropic hormone (ACTH) was intraperitoneally administered to Male SD rats 5 minutes later. Then, rats were sacrificed by cervical dislocation 20 minutes later and bilateral adrenal cortexes were extirpated at once. The extirpated adrenal cortexes were homogenized in buffer A (50 mmol/L Tris-HCl, 250 mmol/L Succrose) followed to be centrifuged at 2,000 g for 3 min (4° C.). The supernatant was centrifuged at 12,500 g for 10 min (4° C.). The residual pellet was resuspended in buffer A followed to be centrifuged at 12,500 g for 10 min (4° C.). The pellet was washed again and finally suspended in buffer B (250 mmol/L Succrose, 10 mmol/L potassium phosphate buffer, 15 mmol/L triethanolamine, 20 mmol/L potassium chloride, 5 mmol/L magnesium chloride, 10 μmol/L trilostane, 10 μmol/L SU10603) for experiments. Malate (150 mmol/L), β-NADP^+ (5 mmol/L) and the compound in a total volume of 25 μL were incubated for 5 min at 37° C. […] The radioactivity of the supernatant was measured by liquid scintillation counter. The pregnenolone content in the sample was calculated from standard curve.

MBR = molecular target: T1, MBR (Rattus norvegicus, UniProt P16257); experiment: Receptor binding: [3H]PK11195 competition binding, rat brain membrane preparation; conditions: 1 nmol/L [3H]PK11195, rat brain membrane preparation; Ki from IC50 by Cheng & Prusoff
T1 construct: After male wistar rats were decapitated followed to remove the whole brain, cerebellums were removed; from tissue; host or cells: male Wistar rat whole brain without cerebellum, crude membrane pellet (12,000 g)
Experimental: The affinity of the compound to MBR was determined using rat brain membrane preparation. After male wistar rats were decapitated followed to remove the whole brain, cerebellums were removed. They were homogenized in ice-cold 50 mmo/L Tris-HCl buffer (pH7.4) and the homogenates were centrifuged at 12,000 g for 20 min (4° C.), and then their supernatants were discarded. The residual pellets were washed in the same buffer. The pellets resuspended in 50 mmo/L Tris-HCl buffer (pH7.4) and adjusted to about 1 mg/mL were used as rat brain membrane preparations for binding assay. The binding assay was experimented using [3H]PK11195 as a selective MBR ligand.
To determine the amount of total binding in saturation binding study, membrane preparations, various concentrations of [^3H]PK11195, final concentraion: 0.5 vol % dimethylsulfoxide (DMSO) and 50 mmo/L Tris-HCl buffer (pH7.4) (total volume of 200 μL) were incubated for 1 hour at room temperature. To determine the amount of non-specific binding, 20 μmol/L of PK11195 was added in place of DMSO were incubated for 1 hour. The mixture rapidly was filtrated on GF/B filter soaked with 0.3% polyethyleneimine using cell harvester, which was washed twice with 50 mmo/L Tris-HCl buffer (pH7.4). After drying, the radioactivity on the filer was measured by liquid scintillation counter. The data were analyzed using analysis soft KELL (Ver. 6, BIOSOFT). The dissociation constant (KD value) was determined by using scatchard analyses.
To determine the amount of total binding in competition binding study, membrane preparation, final concentraion: 1 nmol/L of [^3H]PK11195, final concentraion: 0.5 vol % of DMSO and 50 mmol/L Tris-HCl buffer (pH7.4) (the total volume of 200 μL) were incubated for 1 hour at room temperature. […] The reaction was terminated as above described 1 hour later, then radioactivity on the filer was measured by liquid scintillation counter. […]

Row | Ki (MBR) [nM] | SMILES | pregnenolone content [1]
1 | – | CCCCCCN(CCCCCC)C(=O)Cc1c(-c2ccc(F)cc2)[nH]c2ccccc12 [FGIN1-27, 2-[2-(4-fluorophenyl)-1H-indol-3-yl]-N,N-dihexylacetamide] | higher than that in DMSO treated group
2 | 32 | O=C(Nc1ccc(O)cc1)N1CCCCc2ccccc21 [Example 14, 1-(4-hydroxyphenylcarbamoyl)-2,3,4,5-tetrahydro-1H-1-benzazepine] | –
3 | 0.09 | O=C(Nc1c(Cl)cccc1Cl)N1CCCCc2ccccc21 [7 (18), 1-(2,6-dichlorophenylcarbamoyl)-2,3,4,5-tetrahydro-1H-1-benzazepine] | –
4 | 5.5 | O=C(Nc1ccccc1)N1CCCCc2ccc(F)cc21 [7 (5), 8-fluoro-1-phenylcarbamoyl-2,3,4,5-tetrahydro-1H-1-benzazepine] | –
